Patent publication US20030215462A1, “Use of UGT inhibitors to increase bioavailability” (priority 2001, published 2003)
“And” between values parts separate entries of the source, which are not always exact repeats. Equal values may be shown once.

Legend:
UGT1A7 = UGT1A7 (Homo sapiens, UniProt Q9HAW7); experiment: Substrate glucuronidation by recombinant UGT1A7; assay type: in vitro ADME; conditions: UGT1A7 Bacculosomes 250 μg/ml; 7-HFC 50 μM
UGT1A10 = biological target: T1, UGT1A10 (Homo sapiens, UniProt Q9HAW8); experiment: Substrate glucuronidation by recombinant UGT1A10; conditions: 7-HFC 50 μM
T1 sequence (Q9HAW8 26-530): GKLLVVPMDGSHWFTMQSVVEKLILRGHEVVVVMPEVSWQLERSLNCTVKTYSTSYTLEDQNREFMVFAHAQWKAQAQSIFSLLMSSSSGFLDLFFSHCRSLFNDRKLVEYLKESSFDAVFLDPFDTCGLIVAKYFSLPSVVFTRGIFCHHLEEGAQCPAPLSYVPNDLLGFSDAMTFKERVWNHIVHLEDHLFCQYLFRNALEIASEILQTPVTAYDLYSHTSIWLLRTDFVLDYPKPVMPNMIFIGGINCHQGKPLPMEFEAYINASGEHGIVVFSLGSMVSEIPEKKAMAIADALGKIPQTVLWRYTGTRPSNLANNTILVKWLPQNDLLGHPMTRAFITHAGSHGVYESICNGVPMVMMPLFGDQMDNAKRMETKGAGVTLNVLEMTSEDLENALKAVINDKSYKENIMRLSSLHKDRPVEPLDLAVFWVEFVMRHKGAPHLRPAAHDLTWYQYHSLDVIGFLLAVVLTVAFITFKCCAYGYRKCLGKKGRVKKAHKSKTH

UGT2B7 = biological target: T2, UGT2B7 (Homo sapiens, UniProt P16662); experiment: Substrate glucuronidation by recombinant UGT2B7; conditions: for 7-HFC glucuronidation rate: 7-HFC 50 μM
T2 sequence (P16662 24-529): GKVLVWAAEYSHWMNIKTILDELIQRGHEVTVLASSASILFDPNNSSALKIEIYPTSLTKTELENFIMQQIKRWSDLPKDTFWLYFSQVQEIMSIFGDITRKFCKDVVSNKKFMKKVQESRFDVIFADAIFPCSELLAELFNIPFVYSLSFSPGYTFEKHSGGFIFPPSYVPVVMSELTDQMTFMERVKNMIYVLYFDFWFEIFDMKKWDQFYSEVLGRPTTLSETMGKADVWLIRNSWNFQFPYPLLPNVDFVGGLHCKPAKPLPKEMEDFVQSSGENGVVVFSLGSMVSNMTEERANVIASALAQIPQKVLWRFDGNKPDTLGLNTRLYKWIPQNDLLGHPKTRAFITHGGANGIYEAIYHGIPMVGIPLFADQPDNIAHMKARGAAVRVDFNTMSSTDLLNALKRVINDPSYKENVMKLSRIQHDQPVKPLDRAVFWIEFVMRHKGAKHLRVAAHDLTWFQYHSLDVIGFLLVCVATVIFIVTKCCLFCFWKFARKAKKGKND

UGT2B15 [1] = biological target: T3, UGT2B15 (Homo sapiens, UniProt P54855); experiment: Substrate glucuronidation by recombinant UGT2B15; conditions: UGT2B15 Supersomes 250 μg/ml; 7-HFC 50 μM
T3 sequence (P54855 24-530): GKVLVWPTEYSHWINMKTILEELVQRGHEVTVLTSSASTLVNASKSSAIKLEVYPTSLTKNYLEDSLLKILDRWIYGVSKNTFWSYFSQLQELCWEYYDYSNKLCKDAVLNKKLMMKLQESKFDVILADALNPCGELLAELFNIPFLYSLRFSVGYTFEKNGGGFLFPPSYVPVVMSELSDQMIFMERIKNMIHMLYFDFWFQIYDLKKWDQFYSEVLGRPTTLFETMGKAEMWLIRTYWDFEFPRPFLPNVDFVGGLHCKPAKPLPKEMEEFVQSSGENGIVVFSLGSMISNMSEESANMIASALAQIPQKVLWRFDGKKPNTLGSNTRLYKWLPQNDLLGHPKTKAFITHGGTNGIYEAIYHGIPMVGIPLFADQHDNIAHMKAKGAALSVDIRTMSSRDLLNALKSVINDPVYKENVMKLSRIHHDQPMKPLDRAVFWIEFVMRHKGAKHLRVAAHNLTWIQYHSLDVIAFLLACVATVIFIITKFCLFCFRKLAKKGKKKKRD

UGT1A1 [2] = biological target: T4, UGT1A1 (Homo sapiens, UniProt P22309); experiment: Substrate glucuronidation by recombinant UGT1A1; conditions: for 7-HFC glucuronidation rate: 7-HFC 50 μM
T4 sequence (P22309 26-533): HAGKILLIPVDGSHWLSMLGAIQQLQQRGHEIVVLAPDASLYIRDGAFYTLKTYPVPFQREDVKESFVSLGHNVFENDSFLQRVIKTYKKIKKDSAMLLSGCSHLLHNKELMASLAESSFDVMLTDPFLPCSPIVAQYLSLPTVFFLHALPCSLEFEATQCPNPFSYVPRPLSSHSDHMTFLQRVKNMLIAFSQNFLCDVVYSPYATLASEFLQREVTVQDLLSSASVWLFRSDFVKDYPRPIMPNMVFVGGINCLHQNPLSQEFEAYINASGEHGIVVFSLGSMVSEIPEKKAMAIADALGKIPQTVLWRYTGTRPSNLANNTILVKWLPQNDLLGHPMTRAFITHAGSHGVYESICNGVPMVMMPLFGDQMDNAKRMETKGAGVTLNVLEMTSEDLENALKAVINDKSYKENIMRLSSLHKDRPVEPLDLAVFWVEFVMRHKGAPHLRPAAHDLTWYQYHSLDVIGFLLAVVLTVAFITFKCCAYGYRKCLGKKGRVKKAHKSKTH

UGT2B15 [3] = biological target: T3, UGT2B15
[4] = humans; cited from earlier work
UGT1A1 [5] = biological target: T4, UGT1A1
UGT1A9 = biological target: T5, UGT1A9 (Homo sapiens, UniProt O60656); conditions: 30 min, 100 μM, pH 7.5
T5 sequence (O60656 26-530): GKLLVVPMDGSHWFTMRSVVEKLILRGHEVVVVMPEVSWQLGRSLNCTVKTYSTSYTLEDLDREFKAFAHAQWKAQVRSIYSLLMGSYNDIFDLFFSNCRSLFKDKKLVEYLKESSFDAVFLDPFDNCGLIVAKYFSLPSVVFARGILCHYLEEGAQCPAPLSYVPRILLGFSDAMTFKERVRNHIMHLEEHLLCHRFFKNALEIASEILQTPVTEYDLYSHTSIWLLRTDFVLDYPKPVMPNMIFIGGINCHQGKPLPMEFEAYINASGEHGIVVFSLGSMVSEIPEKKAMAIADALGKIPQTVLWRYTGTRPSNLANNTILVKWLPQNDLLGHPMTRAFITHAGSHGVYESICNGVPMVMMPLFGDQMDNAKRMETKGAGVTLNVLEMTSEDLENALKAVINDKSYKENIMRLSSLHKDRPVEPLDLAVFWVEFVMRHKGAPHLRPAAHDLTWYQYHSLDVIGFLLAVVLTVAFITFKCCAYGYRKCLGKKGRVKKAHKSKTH

Sequence of UGT1A7 (Q9HAW7 26-530): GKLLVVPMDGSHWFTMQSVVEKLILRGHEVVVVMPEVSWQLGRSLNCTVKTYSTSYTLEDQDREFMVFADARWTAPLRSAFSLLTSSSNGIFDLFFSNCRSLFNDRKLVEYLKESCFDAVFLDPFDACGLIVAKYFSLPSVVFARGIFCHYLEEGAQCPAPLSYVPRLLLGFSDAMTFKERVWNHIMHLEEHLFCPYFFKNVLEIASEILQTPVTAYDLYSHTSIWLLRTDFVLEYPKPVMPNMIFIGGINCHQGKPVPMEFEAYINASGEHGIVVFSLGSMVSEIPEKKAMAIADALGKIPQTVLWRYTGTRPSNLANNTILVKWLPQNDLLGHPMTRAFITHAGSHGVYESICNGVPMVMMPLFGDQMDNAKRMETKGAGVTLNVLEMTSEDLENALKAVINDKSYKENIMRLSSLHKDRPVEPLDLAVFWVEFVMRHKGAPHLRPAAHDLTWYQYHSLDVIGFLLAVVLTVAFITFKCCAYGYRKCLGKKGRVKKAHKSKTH

SMILES	7-HFC glucuronidation rate (UGT1A7) [pmol/min/mg protein]	7-HFC glucuronidation rate (UGT1A10; UGT1A10 Bacculosomes 250 μg/ml) [pmol/min/mg protein]	7-HFC glucuronidation rate (UGT1A10; UGT1A10 Supersomes 250 μg/ml) [pmol/min/mg protein]	7-HFC glucuronidation rate in Panvera Bacculosomes as % of Gentest Supersomes (UGT2B7; UGT2B7) [%]	7-HFC glucuronidation rate (UGT2B7; UGT2B7 Bacculosomes 250 μg/ml) [pmol/min/mg protein]	7-HFC glucuronidation rate (UGT2B7; UGT2B7 Supersomes 250 μg/ml) [pmol/min/mg protein]	7-HFC glucuronidation rate (UGT2B15 [1]) [pmol/min/mg protein]	7-HFC glucuronidation rate in Panvera Bacculosomes as % of Gentest Supersomes (UGT1A1 [2]; UGT1A1) [%]	7-HFC glucuronidation rate (UGT1A1 [2]; UGT1A1 Bacculosomes 250 μg/ml) [pmol/min/mg protein]	7-HFC glucuronidation rate (UGT1A1 [2]; UGT1A1 Supersomes 250 μg/ml)	labetalol metabolism, in words (UGT2B15 [3])	absolute oral bioavailability [4]	labetalol metabolism, in words (UGT1A1 [5])	LG1/LG2 (UGT1A9)	labetalol metabolite LG1, peak area normalized to internal standard (UGT1A9)	labetalol metabolite LG2, peak area normalized to internal standard (UGT1A9)
O=c1cc(C(F)(F)F)c2ccc(O)cc2o1 [7-HFC, 7-hydroxy-4-(trifluoromethyl)coumarin]	564 ± 9	553 ± 40	460 ± 2	22	212 ± 13	972 ± 72	976 ± 17	42	346 ± 12	816 ± 70 pmol/min/mg protein and 929 ± 7 pmol/min/mg protein	–	–	–	–	–	–
CC(CCc1ccccc1)NCC(O)c1ccc(O)c(C(N)=O)c1 (stereo not shown) [Labetalol, labetalol]	–	–	–	–	–	–	–	–	–	–	No detectable metabolism was observed	25-30%	No detectable metabolism was observed	0.8	38 (1)	49 (1)
